Article doi:10.1101/2022.12.01.518659v1 (biorxiv, 2022)
Structures can show the parent of a compound that is named as a salt.

Target: Atx3 13Q (Homo sapiens, UniProt P54252, OF/POLYQ/Q/TRACT)
Assay: ThT fluorescence aggregation assay
Format: biochemical

Atx3 13Q, sequence (P54252 whole entry, change not shown): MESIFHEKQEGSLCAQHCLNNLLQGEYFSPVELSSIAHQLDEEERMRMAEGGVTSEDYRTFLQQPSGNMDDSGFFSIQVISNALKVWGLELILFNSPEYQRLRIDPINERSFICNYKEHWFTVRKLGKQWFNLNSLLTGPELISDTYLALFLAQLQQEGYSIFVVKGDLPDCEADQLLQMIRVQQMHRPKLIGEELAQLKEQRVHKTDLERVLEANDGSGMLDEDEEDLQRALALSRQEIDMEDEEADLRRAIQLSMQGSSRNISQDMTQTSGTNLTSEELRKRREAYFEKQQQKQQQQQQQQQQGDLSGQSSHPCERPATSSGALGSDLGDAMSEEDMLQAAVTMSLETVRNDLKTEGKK

IC50 | Compound
0.08 µM | Cc1cc(C2CCCCC2)n(O)c(=O)c1 [ciclopirox ethanolamine]
0.11 µM | NCCc1ccc(O)c(O)c1 [dopamine hydrochloride]
0.12 µM | O=C(O)CN(CCN(CC(=O)O)CC(=O)O)CCN(CC(=O)O)CC(=O)O [pentetic acid]
0.02 µM | Cc1ccc(C(=O)c2cc(O)c(O)c([N+](=O)[O-])c2)cc1 [tolcapone]
